For two molecules, activity results are on record in US8283349B2, “Fungicide N-(3-phenylpropyl) carboxamide derivatives” (Bayer Cropscience AG, priority 2007, dated 2012).

The assay relates to Mycosphaerella graminicola. The experiment in a line: Cell test on Mycosphaerella graminicola. It is filed as cell-based. The following applies: under similar conditions (6 ppm, liquid medium, OD 620 nm); comparison compounds of the prior art. How it is done:
The growth of Mycosphaerella graminicola is performed in a bactopeptone based liquid medium at 20° C. under shaking (120 rpm) during 72 hours. The bactopeptone based medium is prepared by mixing 14.6 grams of D-glucose, 1.4 grams of Yeast extract and 7.1 g of bacteriological peptone (OXOID ref. LP0037) in 1 liter of demineralized water. The medium is sterilized by autoclave 15 minutes at 121° C. After 72 hours, pre-culture of Mycosphaerella graminicola is recovered and the optic density (OD) at 620 nm is adjusted with the bactopeptone based medium at 0.5. The compounds are dissolved in DMSO and added to sterile liquid bactopeptone medium at a concentration of 6 ppm. The medium is inoculated with the pre-culture of Mycosphaerella graminicola by a dilution of 10 times of the pre-culture. The efficacy of the compounds is assessed by OD measurement at 620 nm after 4 days at 20° C. in comparison with a control.

For the molecule `COc1ccnc(C(=O)NCCC(c2ccccc2)c2ccccc2)c1O` [compound 16, N-(3,3-diphenylpropyl)-3-hydroxy-4-methoxypyridine-2-carboxamide], the activity entry was “did not show any activity”.
For `COc1ccc(CCCNC(=O)c2c(-c3ccc(Cl)cc3)noc2C)cc1OC` [compound 60, 3-(4-chlorophenyl)-N-[3-(3,4-dimethoxyphenyl)propyl]-5-methylisoxazole-4-carboxamide], the activity result is “did not show any activity”.
